Assay results taken from patent US5360790A, “Method and formulations for the therapy of acute renal failure” (The Regents of the University of Michigan, priority 1993, dated 1994).

Tests used:
Format in all cases: in vivo, rat
Male Sprague-Dawley rats [1] = test: BUN and serum creatinine time course after HgCl2 (nephrotoxic acute renal failure)
Procedure: (§1) At time intervals of 24, 30, 48, and 72 hours after toxin administration, [^3 H] thymidine incorporation into renal cortex, as well as blood urea nitrogen (BUN) and serum creatinine levels, were determined with methods known and practiced in the art. To obtain a complete time course for the BUN and serum creatinine levels, some animals were allowed to recover for as long as 12 days after HgCl2 administration, and blood samples were obtained daily for BUN and serum creatinine levels.

Sprague Dawley rats = test: BUN and serum creatinine time course after renal ischemia; conditions: single dose EGF within 1-1.5 hours of reperfusion after 30 minutes bilateral renal ischemia; entire 7-day period
Procedure: (§2) Sprague Dawley rats (250-325 g) were anesthetized with a short-acting barbiturate, the abdominal cavity was exposed, and both left and right renal arteries were identified and clamped for 30 minutes. The clamps were released and perfusion to the kidneys reestablished. At time intervals of 24, 48, and 72 hours after ischemia and reperfusion, ^3 H-thymidine incorporation into kidneys, as well as blood urea nitrogen (BUN) and serum creatinine levels. To obtain a complete time course, some animals were allowed to recover for 7 days after renal ischemia and blood samples were then obtained daily for BUN or serum creatinine measurements.
(§3) This dose of EGF is substantially lower than those employed in previously reported studies that administered EGF systemically. At varying time points after reperfusion, measurements of ^3 H-thymidine incorporation into the kidneys and BUN, and serum creatinine levels were determined.

renal tubule cells [2] = test: Histoautoradiography of [3H] thymidine labeled kidney cells after HgCl2
Procedure: as §1
Histoautoradiographic studies were performed to determine the type of cells labeled with [^3 H] thymidine after HgCl2 exposure. Kidney sections from rats at 48 or 72 h after toxic administration were used for histoautoradiographic analysis. Labeling was confined to the nuclei. On average, 97.9% of the labeled cells were tubule cells, and 2.1% of the labeled cells were interstitial cells in the 60 examined fields. In control rats undergoing sham injection, 98.4% of labeled cells were tubule, and 1.6% were interstitial in 90 examined fields.

renal tubule cells [3] = test: Histoautoradiography of 3H-thymidine labeled kidney cells after renal ischemia
From the text: To localize and identify the cells incorporating the radiolabeled thymidine within the kidney, histoautoradiography of kidney samples was also accomplished. For quantitative evaluation, a computerized operator-interactive system was used. Sections were examined at 276 magnification, and 10-15 fields were counted in the cortex and outer and inner stripes of the outer medulla in each section for an individual animal. The cell type of the labeled cells was identified as either tubular or interstitial.
At varying time points after reperfusion, measurements of ^3 H-thymidine incorporation into the kidneys and BUN, and serum creatinine levels were determined.

Male Sprague-Dawley rats [4] = test: Histological score of tubule cell injury after HgCl2; conditions: 24 h after HgCl2; n=120 fields from 3 animals; P=NS vs non-EGF-treated
Procedure: Histological grading was assessed at 24 h, a time at which the peak of HgCl2 -induced toxic renal injury occurs and just before the accelerated regeneration repair phase. At 24 h, the mean histological scores in the inner cortex and outer stripe were 2.92±0.13 and 4.70±0.07, respectively, in the nephrotoxic non-EGF-treated rats vs. scores of 3.25±0.18 and 4.65±0.08, respectively, in the nephrotoxic EGF-treated rats (n=120 fields from 3 animals in each treatment group, P=NS for both scores). At 24 h after HgCl2, extensive necrosis was present in proximal tubule segments with no difference in the degree of tubule cell necrosis observed histologically between the EGF-treated and nontreated groups receiving HgCl2.

renal tubule cells [5] = test: 3H-thymidine incorporation into kidneys after bilateral renal artery clamping (ischemic acute renal failure)
Procedure: as §2, §3

renal tubule cells [6] = test: [3H] thymidine incorporation into renal cortex after HgCl2 (nephrotoxic acute renal failure); conditions: for [3H] Thymidine Incorporation: EGF 20 μg sc 2-4 h after nephrotoxin
Procedure: as §1

[7] = peak at 3 days after HgCl2 injection, EGF 20 μg sc, P<0.001 vs nontreated
[8] = EGF-treated rats, 48 h after HgCl2 injection, 60 fields
[9] = EGF-treated postischemic rats at 24 hours
[10] = postischemic kidneys at 24 hours after EGF administration

## epidermal growth factor [EGF]
Male Sprague-Dawley rats [1]; after HgCl2
  return to near normal BUN and serum creatinine, earlier than in non-EGF-treated animals: 4 days
Male Sprague-Dawley rats [1]; day after HgCl2 administration
  return to near normal BUN and serum creatinine levels: 8 days
Male Sprague-Dawley rats [1]; [7]
  peak BUN level: 213 ± 23 mg/dL
  peak serum creatinine level: 6.54 ± 0.72 mg/dL
Sprague Dawley rats
  BUN levels of EGF-treated animals: significantly lower
  creatinine levels of EGF-treated animals: significantly lower
Renal tubule cells [2]; 24 h after HgCl2, renal cortex and outer medulla, n=3 rats and 60 fields, P<0.02 vs nontreated
  number of tubule cells incorporating [3H] thymidine: 7.5±1.8 labeled cells/field
Renal tubule cells [2]; 48 h after HgCl2, renal cortex and outer medulla, n=3 rats and 60 fields
  number of labeled tubule cells: 20.9±2.1 cells/field
Renal tubule cells [2]; [8]
  labeled cells identified as interstitial cells: 3.7%
  labeled cells identified as tubule: 96.3%
Renal tubule cells [3]; [9]
  labeled cells identified as interstitial cells: 1.9%
  labeled cells identified as tubule: 98.1%
  labeled interstitial cells, absolute number: 61
  labeled tubule cells, absolute number: 3,183
Renal tubule cells [3]; [10]
  distribution of labeled tubule cells: cortex: 27%
  distribution of labeled tubule cells: outer stripe of the outer medulla: 68%
Male Sprague-Dawley rats [4]
  mean histological score, inner cortex: 3.25±0.18
  mean histological score, outer stripe: 4.65±0.08
Renal tubule cells [5]; EGF treatment of rats undergoing sham ischemia, P=NS, n=3
  3H-thymidine incorporation, sham ischemia: did not show any increase
Renal tubule cells [5]; single dose EGF 1-1.5 hours after reperfusion, 24, 48, 72 hours of reperfusion after 30 minutes bilateral renal artery clamping
  renal thymidine incorporation compared with control nontreated ischemia values: significantly increased renal thymidine incorporation
Renal tubule cells [6]; 0 h, rats given 5 mg/kg HgCl2, mean (SE 0.03 printed)
  [3H] Thymidine Incorporation: 0.12 dpm × 10^4 /mg DNA
Renal tubule cells [6]; 24 h after 5 mg/kg HgCl2, mean (SE 1.28 printed)
  [3H] Thymidine Incorporation: 13.81 dpm × 10^4 /mg DNA
Renal tubule cells [6]; 48 h after 5 mg/kg HgCl2, mean (SE 19.52 printed)
  [3H] Thymidine Incorporation: 80.52 dpm × 10^4 /mg DNA
Renal tubule cells [6]; 72 h after 5 mg/kg HgCl2, mean (SE 13.80 printed)
  [3H] Thymidine Incorporation: 116.24 dpm × 10^4 /mg DNA
Renal tubule cells [6]; single dose EGF 2 or 4 h after HgCl2, at 24, 30, 48 and 72 h
  renal thymidine incorporation compared with non-EGF-treated animals receiving the nephrotoxin: higher rates of renal thymidine incorporation
